The values below are quoted from earlier work in patent publication US6562588B2, “Sialidase and recombinant cell lines” (Genentech, Inc., priority 1993, dated 2003).

Data set [1] has as its target cytosolic sialidase from rat muscle (Rattus norvegicus, UniProt Q64627). The settings on record: read-out: Ki, rat muscle sialidase (Cytosol).
The subject of data set [2] is plasma membrane sialidase (Adenovirus Transformed Kidney Cells). The settings on record: read-out: Ki, adenovirus transformed kidney cell sialidase (Plasma Membrane).
In data set [3] the target is T1, lysosomal sialidase (Fibroblasts) (Homo sapiens, UniProt Q99519).
T1 construct: host or cells: fibroblasts
The settings on record: read-out: Ki, fibroblast sialidase (Lysosome).

Structures are written as SMILES. Read-outs that look alike come from different tables or passages of the source.

cytosolic sialidase from rat muscle, sequence (Q64627 whole entry): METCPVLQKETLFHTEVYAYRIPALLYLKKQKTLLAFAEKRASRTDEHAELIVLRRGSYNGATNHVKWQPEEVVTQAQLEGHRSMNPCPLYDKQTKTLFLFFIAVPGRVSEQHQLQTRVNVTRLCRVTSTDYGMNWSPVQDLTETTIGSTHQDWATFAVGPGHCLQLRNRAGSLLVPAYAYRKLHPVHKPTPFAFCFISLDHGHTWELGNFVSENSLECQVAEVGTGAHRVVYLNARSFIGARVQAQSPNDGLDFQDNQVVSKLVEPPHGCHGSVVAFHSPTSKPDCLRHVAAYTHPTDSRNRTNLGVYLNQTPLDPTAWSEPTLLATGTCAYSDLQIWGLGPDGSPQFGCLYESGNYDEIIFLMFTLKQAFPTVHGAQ

On to `CC(=O)N[C@H]1[C@H]([C@H](O)[C@H](O)CN=[N+]=[N-])OC(C(=O)O)=C[C@@H]1O` [9-Azido Neu5Ac2en, 5-acetamido-2,6-anhydro-9-azido-3,5,9-trideoxy-D-glycero-D-galacto-non-2-enonic acid], for which the Ki (commonly the equilibrium dissociation constant of an inhibitor or competing ligand from its target) in data set [1] is 50 µM; in data set [2], 10 µM; in data set [3], 10 µM.

As for `CC(=O)N[C@H]1[C@H]([C@H](O)[C@H](O)CSc2ccc(N=[N+]=[N-])cc2[N+](=O)[O-])OC(C(=O)O)=C[C@@H]1O` [9-S-PANP Neu5Ac2en, 9-S-(4′-azido-2′-nitro-phenyl)-5-acetamido-2,6 anhydro-9-thio-2,5,9-trideoxy-D-glycero-D-galacto-non-2-enonic acid], the Ki in data set [1] (4-MU-Neu5Ac as substrate, previously reported data) is above 50 µM.
